{"source": "patent US20210183467A1", "about": "“SYSTEM AND METHOD FOR USING MICROBIOME TO DE-RISK DRUG DEVELOPMENT” (YALE UNIVERSITY, priority 2018, published 2021)", "key": {"[1]": {"tested_on": "human gut microbial communities", "assay": "Bacterial conversion assay with fecal microbial communities", "type": "in vitro ADME", "conditions": "human unfractionated fecal microbial communities", "method": "(§1) All handling of human materials is conducted with the permission of the Yale Human Investigation Committee. Samples are collected and stored as described in A. L. Goodman et al., Extensive personal human gut microbiota culture collections characterized and manipulated in gnotobiotic mice, Proceedings of the National Academy of Sciences,108, 6252-6257 (2011), the content of which is incorporated by reference herein. In brief, a single fecal sample is collected from each healthy human donor, stored on ice for less than 12 hours prior to transport into an anaerobic chamber (Coy Laboratory Products) and homogenization in pre-reduced GMM containing 20% glycerol. Aliquots of 0.5 mL volume are anaerobically prepared in 1.8 mL glass E-Z vials (Wheaton Industries) and stored at −80° C. Murine fecal samples are collected from individually caged animals (2 males and 2 females) and are stored at −80° C. without further processing.\n(§2) Frozen stocks are re-suspended in 4 mL pre-reduced GMM and incubated anaerobically at 37° C. for 14 h. Cultures are diluted (1:10) in 20% pre-reduced GMM containing BRV or SRV at 100 μM and further incubated at 25° C. anaerobically. […] Substrates and reaction product are extracted and quantified by LC-MS as described below."}, "[2]": {"tested_on": "murine gut microbial communities", "assay": "Bacterial conversion assay with fecal microbial communities", "type": "in vitro ADME", "conditions": "murine unfractionated fecal microbial communities", "method": "as §1, §2"}, "[3]": {"assay": "Oral BRV in conventional (CV) and germfree (GF) mice, drug and metabolite levels", "type": "in vivo, C57BL/6 mice", "method": "Oral BRV was administered to conventional (CV) and germfree (GF) C57BL/6 mice, and BRV and BVU concentrations were measured over time along the length of the gastrointestinal tract as shown in FIG. 4C. Serum kinetics of BRV and BVU in conventional (CV) and germ-free (GF) mice were compared following oral BRV administration.\nAll experiments using mice are performed using protocols approved by the Yale University Institutional Animal Care and Use Committee. Germfree (GF) 8 to 12 week old C57BL/6J mice are maintained in flexible plastic gnotobiotic isolators with a 12-hour light/dark cycle and GF status monitored by PCR and culture-based methods. Conventional C57BL/6J mice (Jackson Laboratories) are purchased at the age of 6-7 weeks and kept in the lab for 2-3 weeks before experiments. All mice are provided a standard, autoclaved mouse chow (5013 LabDiet, Purina) ad libitum.\n(§3) Each drug treatment is performed using 20 treated and 5 to 6 untreated animals. Both genders are equally represented in each group and evenly distributed across the different time points for sample collection. Animals (n=5 per time point and group) are given 100 mg/kg body weight of BRV or SRV as suspensions in PBS (200 μL PBS for controls) by oral gavage. One blood sample is collected from each animal at an early time point (0.5, 1, 1.5, or 2 hours after drug administration) by submandibular bleeding. At 3, 5, 7, and 9 h, mice are sacrificed and tissue samples are collected into sample tubes and snap-frozen. Fecal samples are collected before euthanization and re-suspended in PBS (1 mL) through vigorous shaking. 20 μL are then plated on BHI blood plates and incubated aerobically and anaerobically at 37° C. to check GF, GN^WT, and GN^MUT animals for contamination. Monocolonized mice are also checked for contamination by PCR using primers 7 and 8.\n200 μL of 0.1 mm zirconia/silica beads (BioSpec Products) and 500 μL of organic solvent (acetonitrile:methanol, 1:1) supplemented with internal standard are added to 50-350 mg of pre-weighed solid material. Material is homogenized by mechanical disruption with a bead beater (BioSpec Products) set for 2 minutes on high setting at room temperature. After incubation for at least 1 h at −20° C., samples are centrifuged (3220 rcf, −9° C.) for 15 min. 10 μL of supernatant are diluted with 10 μL H2O for analysis by LC-MS.\nSamples for LS-MS analysis are prepared as described above. Chromatographic separation is performed on a C18 Kinetex Evo column (Phenomenex, 100 mm×2.1 mm, […]) using mobile phase A: H2O, 0.1% formic acid and B: methanol, 0.1% formic acid at 45° C. 5 μL of sample are injected at 100% A and 0.4 mL/min flow followed by a linear gradient to 95% B over 5.5 min and 0.4 mL/min flow leading to thymine, BVU, SRV, and BRV elution at 0.95, 2.0, 2.15, and 2.4 min, respectively. The internal standards caffeine and sulfamethoxazole elute at 1.9 and 2.1 min, respectively. The qTOF is operated in positive scanning mode (50-1000 m/z) and the following source parameters: VCap is 3500 V; nozzle voltage is 2000 V; gas temp is 225 C; drying gas 13 L/min; nebulizer is 20 psig; sheath gas temp is 225 C; and sheath gas flow is 12 L/min. Online mass calibration is performed using a second ionization source and a constant flow (5 μL/min) of reference solution (121.0509 and 922.0098 m/z). Compounds are identified based on the retention time of chemical standards and their accurate mass (tolerance 20 ppm)."}, "[4]": {"type": "in vivo, C57BL/6J mice", "method": "Germfree mice were colonized with the wildtype and mutant strains. BRV was administered.\nIndividually caged GF C57BL/6J mice are colonized by oral gavage with 200 μL of an overnight GMM culture of either B. thetaiotaomicron wild type or bt4554 strains to generate GN^WT or GN^MUT mice, respectively. After 4 days, bacterial loads are determined by CFU plating on BHI blood agar prior to drug treatment.\nas §3"}, "[5]": {"conditions": "model parameter; Clinical Virology 3rd edition, 2009; cited from earlier work"}}}
{"smiles": "O=c1[nH]c(=O)n([C@H]2C[C@H](O)[C@@H](CO)O2)cc1/C=C/Br", "note": "[BRV, Brivudine]", "values": [{"measurement": "conversion of BRV to BVU", "setting": "[1]", "value": "stoichiometric conversion to BVU"}, {"measurement": "conversion of BRV to BVU", "setting": "[2]", "value": "stoichiometric conversion to BVU"}, {"measurement": "endogenous DPD substrates (thymine) in the liver", "setting": "[3]; BRV-treated CV mice", "value": "accumulate endogenous DPD substrates"}, {"measurement": "drug concentrations along the length of the gastrointestinal tract", "setting": "[3]; CV mice, oral BRV", "value": "progressively reduced"}, {"measurement": "BRV levels over time in the duodenum", "setting": "[3]; CV versus GF mice, oral BRV", "value": "similar"}, {"measurement": "serum BRV", "setting": "[3]; CV versus GF mice, oral BRV", "value": "without a corresponding decrease"}, {"measurement": "BRV levels further along the gastrointestinal tract and in feces", "setting": "[3]; GF mice versus CV, oral BRV", "value": "significantly higher"}, {"measurement": "absorption of BRV from the lower intestine", "setting": "[4]; GN^MUT mice excrete the drug in feces", "value": "poorly absorbed"}, {"measurement": "metabolism of cecal BRV by wildtype B. thetaiotaomicron", "setting": "[4]; GN^WT mice", "value": "completely metabolizes"}, {"measurement": "thymine in the liver", "setting": "[4]; GN^WT mice after BRV administration", "value": "thymine accumulation in the liver"}, {"measurement": "BRV serum kinetics", "setting": "[4]; GN^WT versus GN^MUT mice", "value": "indistinguishable"}, {"measurement": "F, bioavailability of the drug", "setting": "[5]", "value": 0.3, "unit": "fraction"}]}
